Reference: US20010053796A1, “Delta-aminolevulinic acid for prevention and treatment of infection microorganisms and parasite” (priority 2000, published 2001)

How the values were obtained:
Edwardsiella tarda = test: Proliferation inhibition of pathogenic bacteria in BHI broth (620 nm); format: cell-based; settings: product on the market (Sigma)
Procedure: (§1) Pathogenic index bacteria used in this experiment are Edwardsiella tard, Streptococcus sp., Staphylococcus sp., Staphylococcus epidermidis, Pseudomonas sp., Vibrio anguillarum which are collected from the marine fish farm nearby Yeosu. In solid culture, they were cultured in TSA (tryptic soy agar) supplemented with 0.2% NaCl flat media and in liquid culture, they were prepared by culturing in BHI broth for 24 hrs and setting the O.D. value as 1.0. δ-aminolevulinic acid used in this experiment were one on the market (Sigma) and one formulated by inventors of the present invention (Korean patent application No. 1998-41898). Each 0.167 g δ-aminolevulinic acid were dissolved in 1.0 mL sterilized distilled water was used as undiluted solution. 1.0 M δ-aminolevulinic acid was 2-fold diluted with BHI broth by stages up to 64-fold and prepared for test solution to examine pathogenic bacteria proliferation-prohibiting effect. […] In control group, instead of δ-aminolevulinic acid, BHI broth bacteria suspension were mixed with (1:1) and then observed with the same method above. MIC assay by δ-aminolevulinic acid for major pathogenic bacteria of marine cultivating fishes, Edwardsiella tard, Streptococcus sp., Staphylococcus sp., Staphylococcus epidermidis, Pseudomonas sp., Vibrio anguillarum was carried out by flat drug disc method. 100 μL of each bacteria in a culture solution was mixed with fixed amount of top agar and coated to TSA agar. 1.0 M δ-aminolevulinic acid solution was diluted by 2 folds in PBS and 10 μL of each dilution were absorbed to sterilized disc. After incubation at 23˜25° C. for 2˜3 days, antibacterial effect was indicated by measuring the size (mm) of clear zone. In control group, PBS was absorbed into disc instead of δ-aminolevulinic acid dilution solution with the same amount and observed. From the result of this experiment using δ-aminolevulinic acid on the market, proliferation-inhibiting effects of pathogenic bacteria according to δ-aminolevulinic acid concentration are shown in Table 2a (Edwardsiella tard) and Table 2b (Streptococcus sp.). Below 1/32 fold (31 mM) of δ-aminolevulinic acid dilution rate, proliferation of both bacteria was inhibited. […] The experimental result of δ-aminolevulinic acid prepared by the inventors has shown in Table 3 and no difference in effects from δ-aminolevulinic acid on the market.

Streptococcus sp. [1] = test: as above; format: cell-based; settings: product on the market (Sigma)
Procedure: as §1

Streptococcus sp. [2] = test: Prevention effect for artificial infection (abdominal injection of bacteria); format: in vivo, Sebastes schlegeli; settings: for Mortality during Cultivation: dead of 20 fish
Procedure: (§2) The water temperature was maintained at 20° C. (±2° C. ) throughout the experiment. […]
Bastardhalibut and Sebastes schlegeli were infected by Streptococcus sp. by abdominal injection with the same method of fish breeding, δ-aminolevulinic acid treatment and artificial infection carried out in Experiment 1 and 2. Each experimental fish was moved to fish tanks for monitoring and monitored for mortality according to infection for 2 weeks. […] The treated group, with δ-aminolevulinic acid by tank administration method and oral administration method, has shown viability of higher than 65%.

Staphylococcus epidermis [3] = test: as above; format: in vivo, Sebastes schlegeli; settings: for Mortality during Cultivation: dead of 20 fish
Procedure: as §2
Bastardhalibut and Sebastes schlegeli were infected by […] Staphylococcus epidermis through abdominal injection with the same method of fish breeding; δ-aminolevulinic acid treatment and artificial carried out in Experiment 1 and 2. Each experimental fish was moved to fish tanks for monitoring and monitored for mortality according to infection for 2 weeks. […] The treated group, with δ-aminolevulinic acid by tank administraion method and oral administration method, has shown high viability.

Staphylococcus epidermis [4] = test: Treatment effect of infected fry by oral administration in feed; format: in vivo, Sebastes schlegeli; settings: 50 fish, Bastardhalibut
Procedure: In this example, fry of Bastardhalibut and Sebastes schlegeli (mean body weight 2 g), 50 per each breeding tank, were preliminary-bred for 1 week and stabilized. […] The artificial infection methods were carried out through the digestion method. Pathogenic organisms were applied into fish tanks and introduced into seawater for an hour, wherein the concentration of organisms adjusted to 10^4 CFU/mL. Treatment conditions are as follows; after artificial infection, infected fish were moved to fish tanks and kept in the infection period for 3 days. On the fourth day of infection, 0.1˜50 ppm of δ-aminolevulinic acid for feed were added. The fish were bred for 2 weeks after exchanging with clean seawater and the mortality of fish according to infection was monitored. In the control groups, after each bacteria were identically infected through digestion method, mortality of Bastardhalibut and Sebastes schlegeli according to bacteria infection was identified while breeding with marketing assorted feed without δ-aminolevulinic acid. As a result of this experiment, δ-aminolevulinic acid-treated groups have shown high viability in both Bastardhalibut (Table 20˜Table 23) and Sebastes schlegeli (Table 24˜Table 27).

Sebastes schlegeli = test: Breeding before Scutica artificial infection (mortality during cultivation); format: in vivo; settings: 1˜3 weeks; for Mortality during Cultivation: dead of 20 fish
Procedure: The water temperature was maintained at 20° C. (±2° C.) throughout the experiment.

[5] = above 1/64 fold (16 mM) dilution rate
[6] = below 1/32 fold (31 mM) dilution rate, 24 hrs, 25° C.

With `NCC(=O)CCC(=O)O` [δ-aminolevulinic acid] the proliferation of bacteria (Edwardsiella tarda; [5]) was “no significant difference from the control group”, the proliferation of bacteria (Edwardsiella tarda; [6]) was “inhibited” and the proliferation of bacteria (Streptococcus sp. [1]; [5]) was “no significant difference from the control group”. For the same compound, the proliferation of bacteria (Streptococcus sp. [1]; [6]) was “inhibited”, the Viability (Streptococcus sp. [2]; orally, 0.1 ppm in feed) was 70% and the “Mortality during Cultivation” value (Streptococcus sp. [2]; orally, 0.1 ppm in feed) was 6. The Viability (Streptococcus sp. [2]; orally, 1.0 ppm in feed) was 70%, the “Mortality during Cultivation” value (Streptococcus sp. [2]; orally, 1.0 ppm in feed) was 6 and the Viability (Streptococcus sp. [2]; orally, 10 ppm in feed) was 85%. For the same compound, the “Mortality during Cultivation” value (Streptococcus sp. [2]; orally, 10 ppm in feed) was 3, the Viability (Streptococcus sp. [2]; orally, 100 ppm in feed) was 90% and the “Mortality during Cultivation” value (Streptococcus sp. [2]; orally, 100 ppm in feed) was 2. For the same compound, the Viability (Streptococcus sp. [2]; to fish tanks, 0.01 ppm) was 60%, the “Mortality during Cultivation” value (Streptococcus sp. [2]; to fish tanks, 0.01 ppm) was 8 and the Viability (Streptococcus sp. [2]; to fish tanks, 0.1 ppm) was 65%. For the same compound, the “Mortality during Cultivation” value (Streptococcus sp. [2]; to fish tanks, 0.1 ppm) was 7, the Viability (Streptococcus sp. [2]; to fish tanks, 1.0 ppm) was 85% and the “Mortality during Cultivation” value (Streptococcus sp. [2]; to fish tanks, 1.0 ppm) was 3. The Viability (Streptococcus sp. [2]; to fish tanks, 10 ppm) was 80%, the “Mortality during Cultivation” value (Streptococcus sp. [2]; to fish tanks, 10 ppm) was 4 and the Viability (Staphylococcus epidermis [3]; orally, 0.1 ppm in feed) was 50%. The “Mortality during Cultivation” value (Staphylococcus epidermis [3]; orally, 0.1 ppm in feed) was 10, the Viability (Staphylococcus epidermis [3]; orally, 1.0 ppm in feed) was 50% and the “Mortality during Cultivation” value (Staphylococcus epidermis [3]; orally, 1.0 ppm in feed) was 10. For the same compound, the Viability (Staphylococcus epidermis [3]; orally, 10 ppm in feed) was 75%, the “Mortality during Cultivation” value (Staphylococcus epidermis [3]; orally, 10 ppm in feed) was 5 and the Viability (Staphylococcus epidermis [3]; orally, 100 ppm in feed) was 80%. The “Mortality during Cultivation” value (Staphylococcus epidermis [3]; orally, 100 ppm in feed) was 4, the Viability (Staphylococcus epidermis [3]; to fish tanks, 0.01 ppm) was 55% and the “Mortality during Cultivation” value (Staphylococcus epidermis [3]; to fish tanks, 0.01 ppm) was 9. The Viability (Staphylococcus epidermis [3]; to fish tanks, 0.1 ppm) was 55%, the “Mortality during Cultivation” value (Staphylococcus epidermis [3]; to fish tanks, 0.1 ppm) was 9 and the Viability (Staphylococcus epidermis [3]; to fish tanks, 1.0 ppm) was 80%. The “Mortality during Cultivation” value (Staphylococcus epidermis [3]; to fish tanks, 1.0 ppm) was 4, the Viability (Staphylococcus epidermis [3]; to fish tanks, 10 ppm) was 80% and the “Mortality during Cultivation” value (Staphylococcus epidermis [3]; to fish tanks, 10 ppm) was 4. For the same compound, the Viability (Staphylococcus epidermis [4]; feed 0.1 ppm from 4th day of infection) was 36%, the Viability (Staphylococcus epidermis [4]; feed 1.0 ppm from 4th day of infection) was 63% and the Viability (Staphylococcus epidermis [4]; feed 10 ppm from 4th day of infection) was 64%. The Viability (Staphylococcus epidermis [4]; feed 50 ppm from 4th day of infection) was 86%, the Viability (Sebastes schlegeli; oral (100 ppm per feed 1 kg)) was 100% and the “Mortality during Cultivation” value (Sebastes schlegeli; oral (100 ppm per feed 1 kg)) was 0. For the same compound, the Viability (Sebastes schlegeli; to fish tanks (10 ppm)) was 100% and the “Mortality during Cultivation” value (Sebastes schlegeli; to fish tanks (10 ppm)) was 0.
